From PMC10452110, “Indole-3-Acetamido-Polyamines as Antimicrobial Agents and Antibiotic Adjuvants” (Biomolecules, 2023)

Tests used:
[1] = system: Staphylococcus aureus (ATCC 25923); experiment: Intrinsic antimicrobial activity (MIC) against S. aureus; type: cell-based; settings: ATCC25923, S. aureus ATCC 25923, mean (n = 3), read-out: MIC S. a
Summary of the method: (§1)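 Antibacterial MICs by established in-house protocol; yeast MICs run externally at CO-ADD, University of Queensland, per their standard screening protocols.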

MRSA (ATCC 43300) = experiment: Intrinsic antimicrobial activity (MIC) against MRSA; type: cell-based; settings: Staphylococcus aureus, MRSA ATCC 43300; mean (n = 2); read-out: MIC MRSA
Summary of the method: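 Bacterial susceptibility was determined following previously reported protocols. The antifungal evaluations were carried out at the Community for Open Antimicrobial Drug Discovery (University of Queensland, Australia) under its standard protocols.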

[2] = system: Pseudomonas aeruginosa (ATCC 27853); experiment: Intrinsic antimicrobial activity (MIC) against P. aeruginosa; type: cell-based; settings: ATCC27853, P. aeruginosa ATCC 27853, mean (n = 3), read-out: MIC P. a
Summary of the method: as §1

[3] = system: Escherichia coli (ATCC 25922); experiment: Intrinsic antimicrobial activity (MIC) against E. coli; type: cell-based; settings: ATCC25922, E. coli ATCC 25922, mean (n = 3), read-out: MIC E. c
Summary of the method: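 Susceptibility testing: bacteria per earlier published methods; fungi per CO-ADD standard protocols (University of Queensland).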

[4] = system: Klebsiella pneumoniae (ATCC 700603); experiment: Intrinsic antimicrobial activity (MIC) against K. pneumoniae; type: cell-based; settings: ATCC700603, K. pneumoniae ATCC 700603, mean (n = 2), read-out: MIC K. p
Method: (§2) The susceptibility of bacterial strains Staphylococcus aureus (ATCC 25923), Escherichia coli (ATCC 25922) and Pseudomonas aeruginosa (ATCC 27853) to antibiotics and compounds was determined using previously reported protocols. Additional antimicrobial evaluation against MRSA (ATCC 43300), Klebsiella pneumoniae (ATCC 700603), Acinetobacter baumannii (ATCC 19606), Candida albicans (ATCC 90028) and Cryptococcus neoformans (ATCC 208821) was undertaken at the Community for Open Antimicrobial Drug Discovery at The University of Queensland (Australia) according to their standard protocols, as reported previously.

[5] = system: Acinetobacter baumannii (ATCC 19606); experiment: Intrinsic antimicrobial activity (MIC) against A. baumannii; type: cell-based; settings: ATCC19606, A. baumannii ATCC 19606, mean (n = 2), read-out: MIC A. b
Method: as §2

[6] = system: Candida albicans (ATCC 90028); experiment: Intrinsic antifungal activity (MIC) against C. albicans; type: cell-based; settings: ATCC90028, C. albicans ATCC 90028, mean (n = 2), read-out: MIC C. a
Summary of the method: (§3)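 For the two bacterial species, susceptibility to compounds and antibiotics follows a prior protocol. Both fungal species are assessed by the Queensland-based Community for Open Antimicrobial Drug Discovery using its standard procedures.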

[7] = system: Cryptococcus neoformans (ATCC 208821); experiment: Intrinsic antifungal activity (MIC) against C. neoformans; type: cell-based; settings: ATCC208821, C. neoformans ATCC 208821, mean (n = 2), read-out: MIC C. n
Summary of the method: as §3

Cytotoxicity assay = type: cell-based; settings: human; HEK293 cells; mean (n = 2); read-out: Cytotoxicity: concentration of compound at 50% cytotoxicity (IC50)
Method: Cytotoxicity assays were conducted using the protocols previously reported.

human red blood cells = experiment: Hemolytic assay; type: cell-based; settings: mean (n = 2)
Method: Hemolysis assays were conducted using the protocols previously reported.

P. aeruginosa ATCC 27853 = experiment: Enhancement of doxycycline action against P. aeruginosa; type: cell-based, Pseudomonas aeruginosa; settings: doxycycline at 4.5 µM
Method: (§4) Antibiotic enhancer concentrations were determined using previously reported protocols.

E. coli ATCC 25922 = experiment: Enhancement of erythromycin action against E. coli; type: cell-based, Escherichia coli; settings: erythromycin at 10.9 µM
Method: as §4

Structure (SMILES) | MIC [1] [µM] | MIC (MRSA (ATCC 43300)) [µM] | MIC [2] [µM] | MIC [3] [µM] | MIC [4] [µM] | MIC [5] [µM] | MIC [6] [µM] | MIC [7] [µM] | IC50 (Cytotoxicity assay) [µM] | Hemolysis: concentration of compound at 10% hemolytic activity (HC10) (human red blood cells) [µM] | Dox/P. a fold change (ratio between intrinsic MIC of the test compound and combination MIC) (P. aeruginosa ATCC 27853) [fold] | Dox/P. a: concentration required to restore doxycycline activity (combination MIC) (P. aeruginosa ATCC 27853) [µM] | Eryth/E. c: concentration required to restore erythromycin activity (combination MIC) (E. coli ATCC 25922) [µM]
COc1ccc2[nH]cc(CC(=O)NCCCNCCCCCCCCCCCCNCCCNC(=O)Cc3c[nH]c4ccc(OC)cc34)c2c1.O=C(O)C(F)(F)F.O=C(O)C(F)(F)F [Compound 16f, N^1,N^12-Bis(3-(2-(5-methoxy-1H-indol-3-yl)acetamido)propyl)dodecane-1,12-diaminium 2,2,2-trifluoroacetate] | 6.82 | ≤ 0.27 | 109 | 13.6 | > 35 | > 35 | 35 | ≤ 0.27 | > 35 | >35 | 8 | 13.6 | 27.3
Cc1ccc2[nH]cc(CC(=O)NCCCNCCCCNCCCNC(=O)Cc3c[nH]c4ccc(C)cc34)c2c1.O=C(O)C(F)(F)F.O=C(O)C(F)(F)F [Compound 17a, N^1,N^4-Bis(3-(2-(5-methyl-1H-indol-3-yl)acetamido)propyl)butane-1,4-diaminium 2,2,2-trifluoroacetate] | 129 | ≤ 0.32 | > 259 | > 259 | > 41 | > 41 | 20.7 | ≤ 0.32 | > 41 | 8.46 | > 2 | 129 | 64.7
Cc1ccc2[nH]cc(CC(=O)NCCCNCCCCCCNCCCNC(=O)Cc3c[nH]c4ccc(C)cc34)c2c1.O=C(O)C(F)(F)F.O=C(O)C(F)(F)F [Compound 17b, N^1,N^6-Bis(3-(2-(5-methyl-1H-indol-3-yl)acetamido)propyl)hexane-1,6-diaminium 2,2,2-trifluoroacetate] | 31.2 | ≤ 0.31 | > 250 | 250 | > 40 | > 40 | 40 | ≤ 0.31 | > 40 | 23.1 | > 8 | 31.2 | 31.2
Cc1ccc2[nH]cc(CC(=O)NCCCNCCCCCCCNCCCNC(=O)Cc3c[nH]c4ccc(C)cc34)c2c1.O=C(O)C(F)(F)F.O=C(O)C(F)(F)F [Compound 17c, N^1,N^7-Bis(3-(2-(5-methyl-1H-indol-3-yl)acetamido)propyl)heptane-1,7-diaminium 2,2,2-trifluoroacetate] | 61.4 | < 0.2 | > 245 | 245 | > 39 | > 39 | 39.3 | < 0.2 | > 39 | >39 | > 2 | 123 | 61.4
Cc1ccc2[nH]cc(CC(=O)NCCCNCCCCCCCCCCNCCCNC(=O)Cc3c[nH]c4ccc(C)cc34)c2c1.O=C(O)C(F)(F)F.O=C(O)C(F)(F)F [Compound 17e, N^1,N^10-Bis(3-(2-(5-methyl-1H-indol-3-yl)acetamido)propyl)decane-1,10-diaminium 2,2,2-trifluoroacetate] | 7.29 | ≤ 0.29 | 233 | 58.3 | > 37 | 37 | ≤ 0.29 | ≤ 0.29 | > 37 | 3.19 | 1 | 233 | 29.2
Cc1ccc2[nH]cc(CC(=O)NCCCNCCCCCCCCCCCCNCCCNC(=O)Cc3c[nH]c4ccc(C)cc34)c2c1.O=C(O)C(F)(F)F.O=C(O)C(F)(F)F [Compound 17f, N^1,N^12-Bis(3-(2-(5-methyl-1H-indol-3-yl)acetamido)propyl)dodecane-1,12-diaminium 2,2,2-trifluoroacetate] | 7.06 | ≤ 0.28 | 226 | 14.1 | > 36 | 36 | ≤ 0.28 | ≤ 0.28 | > 36 | ≤0.28 | 1 | 226 | 14.1
O=C(Cc1c[nH]c2c(F)cccc12)NCCCNCCCCNCCCNC(=O)Cc1c[nH]c2c(F)cccc12.O=C(O)C(F)(F)F.O=C(O)C(F)(F)F [Compound 18a, N^1,N^4-Bis(3-(2-(7-fluoro-1H-indol-3-yl)acetamido)propyl)butane-1,4-diaminium 2,2,2-trifluoroacetate] | 16 | < 0.2 | > 256 | 256 | > 41 | > 41 | 5.12 | < 0.2 | > 41 | >41 | 4 | 64.0 | 64.0
O=C(Cc1c[nH]c2c(F)cccc12)NCCCNCCCCCCNCCCNC(=O)Cc1c[nH]c2c(F)cccc12.O=C(O)C(F)(F)F.O=C(O)C(F)(F)F [Compound 18b, N^1,N^6-Bis(3-(2-(7-fluoro-1H-indol-3-yl)acetamido)propyl)hexane-1,6-diaminium 2,2,2-trifluoroacetate] | 124 | < 0.2 | > 247 | > 247 | > 40 | > 40 | 39.6 | < 0.2 | > 40 | >40 | > 1 | 247 | > 247
COc1cccc2c(CC(=O)NCCCNCCCCCCCNCCCNC(=O)Cc3c[nH]c4c(OC)cccc34)c[nH]c12.O=C(O)C(F)(F)F.O=C(O)C(F)(F)F [Compound 19c, N^1,N^7-Bis(3-(2-(7-methoxy-1H-indol-3-yl)acetamido)propyl)heptane-1,7-diaminium 2,2,2-trifluoroacetate] | 29.5 | 37.8 | > 236 | 236 | > 38 | > 38 | > 38 | ≤ 0.3 | > 38 | >38 | > 2 | 118 | 236
